Source: article PMC6269914, “In Vitro Evaluation of Novel Inhibitors against the NS2B-NS3 Protease of Dengue Fever Virus Type 4” (Molecules, 2013)

Legend:
[1] = target: T1, DENV4 NS2B-NS3pro (Dengue virus type 4, UniProt Q2YHF0, DELINS1442-1474GGGGSGGGG); assay: Inhibitor enzyme kinetics (Lineweaver-Burk and Dixon plots) against NS2B-NS3pro; assay type: biochemical, dengue virus type 4 (DENV4); conditions: AMC peptide substrates
Experimental: Inhibitory kinetic experiments were performed at different constant inhibitor concentrations and different substrate concentrations. Lineweaver–Burk and Dixon plots were used to analyze the inhibition modes of these compounds. Ki values were calculated from the Dixon plots.
The type of inhibition was determined using Lineweaver–Burk plots, and Ki values were determined with a Dixon plot (1/v as a function of [I], inhibitor concentration) from different inhibitor concentrations.

[2] = target: T1, DENV4 NS2B-NS3pro; assay: In vitro inhibition assay of recombinant NS2B-NS3pro with fluorogenic AMC peptide substrate; assay type: biochemical, dengue virus type 4 (DENV4); conditions: primary inhibition assay at a 100 μM concentration of inhibitors; Table S1

T1 sequence (Q2YHF0 1475-1660, added parts left off, stated change not applied): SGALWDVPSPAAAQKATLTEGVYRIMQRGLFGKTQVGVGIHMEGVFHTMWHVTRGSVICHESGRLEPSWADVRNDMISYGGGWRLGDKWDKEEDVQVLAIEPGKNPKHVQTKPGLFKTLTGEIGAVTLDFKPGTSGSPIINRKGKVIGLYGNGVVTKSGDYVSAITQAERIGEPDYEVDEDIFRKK

**Q.** Which Inhibition mode [1] does the source give for `CC(=O)N1N=C(c2cc(-c3ccccc3)nc3ccccc23)OC1c1ccc(C(=O)O)cc1` (centres unmarked) [Compound 14, 4-(3-acetyl-5-(2-phenylquinolin-4-yl)-2,3-dihydro-1,3,4-oxadiazol-2-yl)benzoic acid] here?
**A.** competitive inhibitors

**Q.** What about the “Inhibition Activity” value [2] of the same compound?
**A.** 98.15%
